# Measurements: patent publication US9962420B2, “Compositions and methods for treating diabetes, fatty liver, cardiopathies, insulin resistance, carbohydrate and fat metabolism” (VALBIOTIS, priority 2014, dated 2018)
# Read-outs that look alike come from different tables or passages of the source.
# What was measured:
# [1] = tested on: db/db mice; assay: Body mass (Tests A); type: in vivo; settings: after eight weeks in feed
# Description: (§3) The experiments were performed on db/db mice. db/db mice have a mutation of the leptin receptors inducing a cell signaling dysfunction of the latter. […] These mice are insulin resistant, hypertriglyceridemic and glucose-intolerant.
# (§4) The evaluations presented were performed just before the supplementation (t=0) and at the end of supplementation (t=8 weeks).
# [2] = tested on: db/db mice; assay: Oral test of carbohydrate tolerance, starch force-feeding (Tests A); type: in vivo; settings: Colby method
# Description: The experiments were performed on db/db mice. db/db mice have a mutation of the leptin receptors inducing a cell signaling dysfunction of the latter. The leptin receptors are highly expressed in the hypothalamus. Mice having a mutation of these receptors cannot efficiently regulate their energy stores. […] These mice are insulin resistant, hypertriglyceridemic and glucose-intolerant. They constitute a pertinent and predictive model especially for studying insulin sensitivity, triglyceridemia, type 2 diabetes and one of its complications, non-alcoholic steatohepatitis (NASH) (Aileen J F King Br J Pharmacol 2012; 166(3):877-894; Sanches S C et al. Biomed Res Int 2015).
# The experimental time was nine weeks with a “run-in” of one week followed by eight weeks of supplementation with the plant extracts and a composition X. The male mice were ten weeks old at the start of the treatment.
# Nine compositions X were tested. […]
# The experimental evaluations focused especially on: • Measurement of the body mass; • Measurement of the fasting glycemia; • The change in glycemia during an oral test of carbohydrate tolerance. After force-feeding with starch (3 g/kg) in the fasted state, the change in glycemia in response to starch was measured in the tail by biopsy just before the force-feeding (t0) and then after 30, 60, 90 and 120 minutes. The area under the curve (AUC) was calculated. […]
# [3] = tested on: db/db mice; assay: Fasting glycemia (Tests A); type: in vivo; settings: Colby method
# Description: as §3, §4
# [4] = tested on: db/db mice; settings: highest dose, same model of db/db mice and similar experimental design; cited from earlier work
# [5] = tested on: db/db mice; assay: Glycated hemoglobin HbA1c (Tests B); type: in vivo; settings: six weeks in feed, mean ± SEM
# Description: (§1) Using this predictive model of diabetic mice and incorporating composition C10 directly into the rodents' feed (1% Chrysanthellum indicum, 1% Cynara scolymus, 0.1% Vaccinium myrtillus, 0.001% Piper nigrum and 0.6% Olea europaea of the feed), this makes it possible to ensure its “multi-target” efficacy and its large-scale use, since intravenous or intraperitoneal injections are limited to a small number of people, given their mode of administration.
# (§2) The experimental time was seven weeks with a “run-in” of one week followed by six weeks of supplementation with composition C10. The male mice were six weeks old at the start of the treatment. The evaluations were made just before the supplementation (t=0), weekly for certain parameters, and at the end of supplementation (t=6 weeks). […]
# [6] = tested on: db/db mice; assay: Body mass, fat mass and lean mass by MRI (Tests B); type: in vivo; settings: six weeks in feed, mean ± SEM
# Description: as §1, §2
# [7] = tested on: db/db mice; assay: Fasting glycemia (Tests B); type: in vivo; settings: six weeks in feed, mean ± SEM
# Description: as §1, §2
# [8] = tested on: db/db mice; assay: Hepatic and serum triglycerides, serum HDL cholesterol (Tests B); type: in vivo; settings: six weeks in feed, mean ± SEM
# Description: The experimental time was seven weeks with a “run-in” of one week followed by six weeks of supplementation with composition C10. The male mice were six weeks old at the start of the treatment. The evaluations were made just before the supplementation (t=0), weekly for certain parameters, and at the end of supplementation (t=6 weeks).
# The experimental evaluations related especially to: • Measurement of the feed intake (t1, t2, t3, t4 and t5 weeks); • Measurement of the body mass (t0, t1, t2, t3, t4, t5, t6 weeks); • Measurement of the fat mass and lean mass by MRI (magnetic resonance imaging; t0 and t6 weeks); • Measurement of the fasting glycemia (t0, t1, t2, t3, t4, t5, t6 weeks); • Measurement of the glycated hemoglobin (HbA1c; t6 weeks); • The insulin sensitivity (test identical to that performed in Tests A; t0 and t6 weeks); • The carbohydrate tolerance (test identical to that performed in Tests A; t0 and t6 weeks); • Measurement of the hepatic and serum triglycerides (t6 weeks); • Measurement of the serum HDL cholesterol (t6 weeks).
# [9] = tested on: db/db mice; assay: Insulin sensitivity test (Tests B); type: in vivo; settings: six weeks in feed, mean ± SEM
# Description: For compositions C7 to C9, an insulin sensitivity test was also performed. […] The change in glycemia in response to the insulin injection was measured in the tail by biopsy just before the injection (t0) and then after 30, 60, 90 and 120 minutes. The area under the curve (AUC) was calculated. A decrease in the AUC reflects a better response to the insulin injection and thus an improvement in the insulin sensitivity. Conversely, an increase in the AUC reflects poorer insulin sensitivity and thus insulin resistance.
# as §1, §2
# [10] = p<0.01; cited from earlier work
# [11] = biological target: T1, HMG-CoA reductase (Catalytic domain of the human enzyme, recombinant GST fusion protein expressed in E. Coli) (Homo sapiens, UniProt P04035); assay: Test of inhibition of HMG-CoA reductase; type: biochemical; settings: concentration of sample set at 60 μg/mL
# T1 construct: (Catalytic domain of); GST; purchased Sigma
# T1 sequence (P04035 340-888 limits assumed): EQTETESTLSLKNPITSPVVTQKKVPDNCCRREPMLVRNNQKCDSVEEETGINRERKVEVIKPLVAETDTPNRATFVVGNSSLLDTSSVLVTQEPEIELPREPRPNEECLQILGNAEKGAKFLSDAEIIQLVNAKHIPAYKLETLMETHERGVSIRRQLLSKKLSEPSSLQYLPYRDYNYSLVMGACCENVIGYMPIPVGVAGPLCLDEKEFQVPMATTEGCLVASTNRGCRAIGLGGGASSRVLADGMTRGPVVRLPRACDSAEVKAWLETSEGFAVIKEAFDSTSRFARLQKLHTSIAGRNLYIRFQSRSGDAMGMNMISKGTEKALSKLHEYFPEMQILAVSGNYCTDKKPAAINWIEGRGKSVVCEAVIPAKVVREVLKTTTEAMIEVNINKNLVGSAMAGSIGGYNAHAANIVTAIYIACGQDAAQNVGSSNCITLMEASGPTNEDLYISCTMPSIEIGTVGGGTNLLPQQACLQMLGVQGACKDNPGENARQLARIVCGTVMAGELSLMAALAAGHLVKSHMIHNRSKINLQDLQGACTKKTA
# Description: The molecules were diluted either in 90/10 (v/v) ultra-pure water/DMSO or in 50/50 (v/v) ultra-pure water/ethanol.
# The reaction mechanism is as follows: HMG-CoA+2NADPH+2H^+ ? mevalonate+2NADP^++CoA-SH
# Disappearance of the substrate NADPH (absorbing at 340 nm) is thus monitored over time.
# In a first stage, the solutions need to be prepared from the Sigma® kit: • the 5× buffer supplied must be diluted to a concentration of 1× in ultra-pure water; • the NADPH is dissolved by adding 1× buffer, and then distributed in 100 μL tubes; • the starting enzyme solution is distributed in 25 μL aliquots.
# The manipulations were performed directly in 96-well microplates (NUNC96 or [sequence]96). […]
# After preparing the plate, the kinetic monitoring was performed in a microplate reader (BMG Labtech) over 16 minutes, 25 seconds, with values taken every 25 seconds at λ=340 nm, i.e. a total of 40 cycles. From this, the percentages of inhibition could be calculated.
# In general, irrespective of the test, for a given concentration of an inhibitor, a curve of equation: absorbance=f(time) (in minutes) was prepared. […]
# Depending on the types of tests, the percentages of inhibition of the various enzymes were calculated via various methods: • for the tests for inhibition of HMG-CoA reductase and of α-glucosidases, the calculation formula is identical: […]
smiles,measurement,setting,value
"O=C(/C=C/C=C/c1ccc2c(c1)OCO2)N1CCCCC1 [Composition C5, piperine]",Body mass (mean ± SEM),[1],32.7 ± 1.5 g
same,"Observed degree of efficacy (in % of the control group), oral test of carbohydrate tolerance, AUC (week 8 − week 0)",[2],−82.3%
same,"Observed degree of efficacy (in % of the control group), fasting glycemia after eight weeks of treatment",[3],−13.3%
"CSc1ccc(C(=O)/C=C/c2cc(C)c(OC(C)(C)C(=O)O)c(C)c2)cc1 [GFT 505, Elafibranor]",HbA1c,[4],6%
"CN(C)C(=N)N=C(N)N [Metformin, metformin]",HbA1c,[5],7.59 ± 0.24%
same,Body mass,[6],40.8 ± 2.1 g
same,Fasting glycemia,[7],474 ± 24 mg/dL
same,Serum triglycerides,[8],256.23 ± 28.19 mg/dL
same,HDL cholesterol,[8]; serum,99.21 ± 6.03 mg/dL
same,Area under the curve measured during an test of insulin sensitivity (AUC),[9],32778 ± 3166 mg·min/dL
"CC[C@H]1[C@@H](O)[C@@H]2[C@H](CC[C@]3(C)[C@@H]([C@H](C)CCC(=O)O)CC[C@@H]23)[C@@]2(C)CC[C@@H](O)C[C@@H]12 [OCA, obeticholic acid]",Reduction of circulating HDL cholesterol,[10],-0.2 g/L
CC[C@H](C)C(=O)O[C@H]1C[C@H](O)C=C2C=C[C@H](C)[C@H](CC[C@@H](O)C[C@@H](O)CC(=O)O)[C@H]21 [Pravastatin],% of inhibition HMG-CoA reductase,[11],100%
same,inhibition at 60 µg/mL,[11],100%
